Data taken from patent US11292807B2 (OCEANS LTD., priority 2015, dated 2022).

What was measured:
[1] = tested on: MDA-MB; settings: MDA-MB; 250 ug/ml
[2] = tested on: PC3; experiment: CIMA assay, cell viability, PC3; settings: PC3; 250 ug/ml
[3] = tested on: U373 (glioblastoma-astrocytoma); experiment: CIMA assay, cell viability, U373; settings: U373; 250 ug/ml
[4] = tested on: SKOV3 (ovarian adenocarcinoma); experiment: CIMA assay, cell viability, SKOV3; settings: SKOV; 250 ug/ml
[5] = tested on: THP-1 (acute monocytic leukemia); experiment: CIMA assay, cell viability, THP-1; settings: THP-1; 250 ug/ml
Procedure: Stock solutions of the extracts were prepared in dimethylsulfoxide (DMSO) at 10 mg/mL and stored in 200 μl aliquots at −20° C. until analysis. This preparation ensured that the DMSO delivered to cells in culture never exceeded 1%.
Prepared extracts were assessed following chronic exposure conditions in which cells were seeded at 2×10^3 cells/well (96 well-plate) and incubated with test compounds for 72 h. Each compound was evaluated over a range of concentrations (0, 10, 25, 50 or 100 μg/ml). Cell proliferation was initially assessed using a standard colorimetric indicator of metabolic activity (CIMA) assay. In this assay, tetrazole reduction was evaluated as a measure of metabolic function that evaluates mitochondrial activity to determine the extent of cell proliferation within a culture. This assay is based on the reduction of yellow tetrazolium salt to purple formazan by mitochondrial reductases enzyme in viable cells, resulting in a color changed that confers a change in absorbance.

[6] = tested on: A549 (lung carcinoma); experiment: CIMA assay (colorimetric indicator of metabolic activity), cell viability, A549; settings: A549; 250 ug/ml

For `CCCCCCCCCCCCOS(=O)(=O)[O-].[Na+]` [cont-SDS], the “In vitro activity against cancer cell lines, MDA-MB AVG” value [1] was 0.16, the “In vitro activity against cancer cell lines, PC3 AVG” value [2] was 0.08 and the “In vitro activity against cancer cell lines, U373 AVG” value [3] was 0.05. The “In vitro activity against cancer cell lines, SKOV AVG” value [4] was 0.10, the “In vitro activity against cancer cell lines, THP-1 AVG” value [5] was 0.18 and the “In vitro activity against cancer cell lines, A549 AVG” value [6] was 0.13.
